Measured values reported in patent US8778966B2, “Quinolinone derivatives as PARP and tank inhibitors” (Janssen Pharmaceutica, NV, priority 2007, dated 2014).

Assays:
[1] = test system: tubulin; assay: Tubulin polymerization assay; assay type: biochemical; parameters: key: a compound showing 0 to 50% inhibition at 20 μM is reported as score 1; Score 2 compounds are defined as compound showing more than 50% inhibition at 20 μM and less than 50% inhibition at 5 μM; a compound showing more than 50% inhibition at 5 μM is reported as score 3; settings: tested at 20 μM and 5 μM
Method: The tubulin polymerization assay is an adaptation of an assay originally described by Bonne, D. et al. (J. Biol. Chem., 1985, 260:2819-25). The assay kit was purchased from Cytoskeleton, Inc. (catalogue number BK011) and the assay was performed as described by the supplier with the following modifications. The assay was run in a 384-well black Proxiplate (Perkin Elmer) and volumes were adapted accordingly. The reactions were carried out in a final volume of 10 μl. Compounds were added to 25 μl of the reaction mix in 96-well PP plates (Corning) on ice and 10 μl of this mixture was dispensed into duplicates of the 384-well Proxiplates pre-warmed to 37° C. in a Fluoroskan Ascent plate reader (Thermo Scientific). Fluorescence measurements were taken every minute for one hour. The maximum slope of each well was determined (linear regression through 4 consecutive points) and polymerization was calculated as a percentage of polymerization observed in the absence of compound. Compounds were first measured at a concentration of 20 μM and then at 5 μM for those showing more than 50% inhibition at 20 μM as compared to the polymerization observed in the absence of compound. Results are reported in Table F-2 as scores defined as: a compound showing 0 to 50% inhibition at 20 μM is reported as score 1; a compound showing more than 50% inhibition at 5 μM is reported as score 3.

[2] = test system: HCT116 cells; assay: Mitotic arrest assay on HCT116 cells (phospho-histone H3 Ser10); assay type: cell-based, human; settings: Homo sapiens, HCT-116, HCT116 cells; lowest active dose; read-out: Mitotic arrest HCT116 LAD (converted)
Description: Phosphorylation of histone H3 is tightly correlated with chromosome condensation during both mitosis and meiosis. The assay is a cellular immunosorbent assay wherein the sole antibody is labelled with a detectable conjugate. The phospho-histone H3 (ser10) antibody detects endogenous levels of histone H3 only when phosphorylated at serine 10. […] In parallel with antibody detection, the nuclei of the cells are stained with Hoechst 33342 for cell-counting. Cells are detected and analysed using the InCell Analyzer 1000 from GE Healthcare. Since both the antibody-detection as well as the Hoechst-staining are in the nucleus, the dual area object intensity algorithm is used for analysing the wells.
All compounds tested were dissolved in DMSO and further dilutions were made in culture medium. Final DMSO concentrations never exceeded 0.1% (v/v).
HCT116 cells (supplier: ATCC) (human colon carcinoma cell line) were cultivated in Mc Coy's 5 A medium (supplier: Gibco) supplemented with 10% foetal calf serum (FCS), 2 mM L-glutamine and gentamycin at 37° C. in a humidified incubator with 5% CO2.
HCT116 cells were seeded at 20.000 cells per well in a 96 well plate (black/clear bottom, poly-D-lysine coated, supplier Greiner), cultured overnight to adhere to the bottom of the plate and treated with compound for 6 hours at 37° C. in a humidified incubator. After incubation, the medium was removed and cells were fixed using 100 μl/well formaldehyde (Accustain®, Formaline solution 10% neutral buffered, contains 4% formaldehyde w/v, supplier: Sigma) was added. After incubation for 15 minutes at room temperature, the formaldehyde was removed and cells were incubated with methanol (−20° C.) for 15 minutes at room temperature. After incubation, cells were washed once with phosphate-buffered saline (PBS —CaCl2, —MgCl2, suppier: Gibco)/0.05% Tween 20. The anti-phospho-histone H3 (Ser10) Alexa Fluor 488 antibody (supplier: Cell signalling) is used for detection of the cells inmitosis. The antibody was diluted 1/50 in 5% bovine serum albumins (BSA) and 50 μl/well was used for incubation overnight at room temperature in the dark.
A 1/2000 dilution of Hoechtst 33342 (10 mg/ml, supplier: Invitrogen) was made and 100 μl/well was added for at least 30 minutes before acquiring images. The absorbance at dual wavelengths of 360/480 nm was measured using the InCell Analyzer 1000 from GE Healthcare and the results were then analyzed.
For each experiment, controls (containing no drug) and a blank incubation (containing no cells or drugs) were run in parallel. Analysis was done in triplicate. Low cell count wells were invalidated. The blank value was subtracted from all control and sample values and divided by the standard deviation of the measurements. The compounds were considered active when the obtained value (sigma) was >5. Herein the effects of test compounds are expressed as the lowest dose giving a sigma value of >5 (LAD) (see table F-2).

Structure (SMILES)	tubulin polymerisation score [1]	minimal effective concentration [2] [µM]
CCc1cc2ccc([C@@](C)(C#N)CN(C)Cc3ccc(C#N)cc3)cc2[nH]c1=O (single isomer, unassigned) [Compound 253]	2	–
CCc1cc2ccc([C@](C)(C#N)[C@H]3CCOc4ccccc43)cc2[nH]c1=O (single isomer, unassigned) [Compound 394]	1 (a compound showing 0 to 50% inhibition at 20 μM is reported as score 1)	–
CCc1cc2ccc([C@@](C)(C#N)[C@H]3CCOc4ccccc43)cc2[nH]c1=O (single isomer, unassigned) [Compound 395]	2	–
CCc1cc2ccc(C(C)(C#N)Cc3cccc(-c4cnn(C)c4)c3)cc2[nH]c1=O (centres unmarked) [Compound 17]	–	1
CCc1cc2ccc(C(C)(C#N)Cc3cccc(-c4ccccc4)c3)cc2[nH]c1=O (centres unmarked) [Compound 18]	–	0.316
CCc1cc2ccc(C(C)(C#N)Cc3cccc(I)c3)cc2[nH]c1=O (centres unmarked) [Compound 19]	2	0.1
CCc1cc2ccc(C(C)(C#N)Cc3cccc(N(C)C)c3)cc2[nH]c1=O (centres unmarked) [Compound 20]	–	0.1
CCc1cc2ccc(C(C)(C#N)Cc3cccc(N4CCOCC4)c3)cc2[nH]c1=O (centres unmarked) [Compound 21]	–	0.316
CCc1cc2ccc(C(C)(C#N)Cc3cccc(O)c3)cc2[nH]c1=O (centres unmarked) [Compound 22]	–	3.16
CCc1cc2ccc(C(C)(C#N)Cc3cccc(OCc4ccccc4)c3)cc2[nH]c1=O (centres unmarked) [Compound 23]	–	1
CCc1cc2ccc(C(C)(C#N)Cc3cccc(OCCOC)c3)cc2[nH]c1=O (centres unmarked) [Compound 24]	–	1
CCC(=O)c1cccc(CC(C)(C#N)c2ccc3cc(C)c(=O)[nH]c3c2)c1 (centres unmarked) [Compound 173]	3 (a compound showing more than 50% inhibition at 5 μM is reported as score 3)	–
COc1cc2ccc(C(C)(C#N)Cc3cccc(C#N)n3)cc2[nH]c1=O (centres unmarked) [Compound 218]	2	–
CCc1cc2ccc(C(C)(C#N)Cc3ccc(Cl)nc3OC)cc2[nH]c1=O (centres unmarked) [Compound 225]	2	–
CCc1cc2ccc(C(C)(C#N)Cc3cccc(N4CCCC4)n3)cc2[nH]c1=O (centres unmarked) [Compound 226]	2	–
CCc1cc2ccc(C(C)(C#N)Cc3cc(OC)cc(OC)n3)cc2[nH]c1=O (centres unmarked) [Compound 232]	2	–
CCc1cc2ccc(C(C)(C#N)Cc3cc(C#N)cc4c3OCC4)cc2[nH]c1=O (centres unmarked) [Compound 236]	2	–
Cc1cc2ccc(C(C)(C#N)C3CCc4ccc(Br)cc43)cc2[nH]c1=O (centres unmarked) [Compound 249]	2	–
CCc1cc2ccc(C(C#N)(CC)Cc3cccc(C#N)c3)cc2[nH]c1=O (centres unmarked) [Compound 265]	2	–

Structure (SMILES)	tubulin polymerisation score [1]	minimal effective concentration [2] [µM]
CCc1cc2ccc(C(C)(C#N)Cc3cc(F)cc(C#N)c3)cc2[nH]c1=O (centres unmarked) [Compound 266]	3 (a compound showing more than 50% inhibition at 5 μM is reported as score 3)	–
CCc1cc2ccc(C(C#N)(CC)Cc3cccc(OC)c3)cc2[nH]c1=O (centres unmarked) [Compound 287]	2	–
CCOc1cc(C#N)nc(CC(C)(C#N)c2ccc3cc(CC)c(=O)[nH]c3c2)n1 (centres unmarked) [Compound 315]	2	–
CCc1cc2ccc(C(C#N)(CC)Cc3nc(C#N)cc(OC)n3)cc2[nH]c1=O (centres unmarked) [Compound 316]	2	–
CCc1cc2ccc(C(C#N)(CC)Cc3nc(OC)cc(OC)n3)cc2[nH]c1=O (centres unmarked) [Compound 321]	2	–
CCc1cc2ccc(C(C)(C#N)Cc3ccnc(C#N)c3)cc2[nH]c1=O (centres unmarked) [Compound 324]	1 (a compound showing 0 to 50% inhibition at 20 μM is reported as score 1)	–
CCc1cc2ccc(C(C)(C#N)Cc3cc(C)nc(C#N)c3)cc2[nH]c1=O (centres unmarked) [Compound 328]	2	–
CCc1cc2ccc(C(C)(C#N)Cc3cccc(F)n3)cc2[nH]c1=O (centres unmarked) [Compound 331]	2	–
CCc1cc2ccc([C@](C)(C#N)Cc3cc(F)cc(F)c3)cc2[nH]c1=O [Compound 333]	1 (a compound showing 0 to 50% inhibition at 20 μM is reported as score 1)	–
CCc1cc2ccc(C(C)(C#N)Cc3ccc(C(F)(F)F)nc3C)cc2[nH]c1=O (centres unmarked) [Compound 340]	1 (a compound showing 0 to 50% inhibition at 20 μM is reported as score 1)	–
CCc1cc2ccc(C(C#N)(CC)Cc3cccc(C#N)n3)cc2[nH]c1=O (centres unmarked) [Compound 342]	3 (a compound showing more than 50% inhibition at 5 μM is reported as score 3)	–
CCc1cc2ccc(C(C)(C#N)CCOc3ncc(Br)cn3)cc2[nH]c1=O (centres unmarked) [Compound 349]	2	–
CCc1cc2ccc(C(C)(C#N)Cc3nc(C)cc(OC)n3)cc2[nH]c1=O (centres unmarked) [Compound 371]	1 (a compound showing 0 to 50% inhibition at 20 μM is reported as score 1)	–
CCc1cc2ccc(C(C)(C#N)CN3CCN(c4ncc(Br)cn4)CC3)cc2[nH]c1=O (centres unmarked) [Compound 374]	2	–
CCc1cc2ccc(C(C)(C#N)CN3CCc4ccccc4C3)cc2[nH]c1=O (centres unmarked) [Compound 376]	1 (a compound showing 0 to 50% inhibition at 20 μM is reported as score 1)	–
CCc1cc2ccc([C@](C)(C#N)C[C@H]3Cc4ccccc4O3)cc2[nH]c1=O [Compound 397]	1 (a compound showing 0 to 50% inhibition at 20 μM is reported as score 1)	–
CCc1cc2ccc(C(C)(C#N)CC3Oc4ccccc4O3)cc2[nH]c1=O (centres unmarked) [Compound 398]	2	–
CCc1cc2ccc(C(C)(C#N)Cc3cc(F)cc(F)c3)cc2[nH]c1=O (centres unmarked) [Compound 402]	1 (a compound showing 0 to 50% inhibition at 20 μM is reported as score 1)	–
